Earlier results in patent publication US20250275937A1, “Methods For Reducing Negative Effects Of Alcohol Consumption” (Honed Life Sciences, LLC, priority 2018, published 2025).

Tests used:
[1] = tested on: acute alcohol (EtOH) intoxication; conditions: rats
[2] = tested on: oxidative stress and liver fibrogenesis; conditions: mice

SMILES | Counteracting acute alcohol (EtOH) intoxication and withdrawal signs (tolerance, increased anxiety, seizure susceptibility) [1] | Action on acute EtOH-induced potentiation of GABA receptors (GABA receptors) | Effect on oxidative stress and liver fibrogenesis [2]
O=C1c2c(O)cc(O)cc2O[C@H](c2cc(O)c(O)c(O)c2)[C@H]1O [DHM, dihydromyricetin] | highly effective | antagonizing | 
O=C(O)c1cc(C(=O)O)c2c(n1)C(=O)C(=O)c1cc(C(=O)O)[nH]c1-2 [PQQ, pyrroloquinoline quinone] |  |  | suppresses oxidative stress and liver fibrogenesis
